According to patent US10987317B2, “Inhibition of glutaminase C” (Cornell University, priority 2009, dated 2021):

Experiments:
[1] = target: T1, V5-tagged GAC from Dbl-transformed NIH 3T3 cells (Mus musculus, UniProt D3Z7P3); test: GA activity of immunoprecipitated V5-GAC; assay type: cell-based; conditions: absence of phosphate
T1 construct: expressed in transfected cells; host or cells: NIH 3T3 cells stably expressing oncogenic Dbl
T1 sequence (D3Z7P3 55-603 isoform D3Z7P3-2 limits assumed): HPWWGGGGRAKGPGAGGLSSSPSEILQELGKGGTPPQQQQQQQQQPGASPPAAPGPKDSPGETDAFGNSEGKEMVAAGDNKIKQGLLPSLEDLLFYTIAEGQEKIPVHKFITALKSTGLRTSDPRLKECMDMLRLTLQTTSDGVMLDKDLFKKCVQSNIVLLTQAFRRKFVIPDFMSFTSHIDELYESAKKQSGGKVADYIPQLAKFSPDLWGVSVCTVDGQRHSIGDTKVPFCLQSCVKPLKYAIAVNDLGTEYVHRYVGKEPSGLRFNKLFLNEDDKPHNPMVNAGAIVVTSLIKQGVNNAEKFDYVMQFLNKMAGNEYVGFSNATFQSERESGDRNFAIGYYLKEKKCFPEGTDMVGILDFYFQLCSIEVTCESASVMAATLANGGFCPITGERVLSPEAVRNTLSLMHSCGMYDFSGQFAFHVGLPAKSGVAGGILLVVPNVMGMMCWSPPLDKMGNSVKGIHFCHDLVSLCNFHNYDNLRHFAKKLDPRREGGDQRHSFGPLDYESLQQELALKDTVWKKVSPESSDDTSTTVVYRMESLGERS
Source text: FIGS. 4A-E illustrate the role of glutaminase C activity in cellular transformation. […] Data represent the average of 3 experiments (±s.d.). […] Data represent the average of 3 experiments (±s.d.). […] 100% represents the activity measured in untreated Dbl-transformed cells. The data represent the average of 2 experiments. […] 100% represents the activity measured in untreated SKBR3 cells. The data represent the average of 2 experiments. […] Data represent the average of 3 experiments (±s.d.).
NIH 3T3 cells or NIH 3T3 cells stably expressing the Dbl oncogene, were transiently transfected with DNA encoding a V5-tagged GAC. The cells were then harvested and the ectopically expressed GAC was isolated by immunoprecipitation via the V5 tag. The VS-GAC obtained from one of the Dbl samples was additionally treated with alkaline phosphtase under dephosphorylation conditions. The samples were then assayed for glutaminase activity in the absence of phosphate (top panel) and the relative expression levels of VS-GAC was determined by Western blotting using an anit-V5 antibody (bottom panel).
NIH 3T3 cells stably expressing oncogenic Dbl were transiently transfected with DNA encoding VS-tagged GAC, and cells were treated with either 968 or BA-968 ([…]) as indicated for 48 hours. The cells were then harvested and the ectopically expressed GAC was isolated by immunoprecipitation via the V5 tag. The samples were then assayed for glutaminase activity in the absence of phosphate (top panel) and the relative expression levels of VS-GAC was determined by Western blotting using an anti-V5 antibody (bottom panel).

MDA-MB231 cells = test: Breast cancer cell soft agar colony formation and growth; assay type: cell-based, human; conditions: 10 μM
Description: FIGS. 2A-G illustrate effects of 968 on the transforming activity of constitutively active Rho GTPases and human breast cancer cells. […] Cells are scored after 14 days and plotted as the percentage of the total number of colonies greater than […] in diameter. Data represent the average of 3 experiments (±s.d.). […] Data represent the average of 3 experiments (±s.d.). […] Data represent the average of 3 experiments (±s.d.). […] After 24 hours at 37° C. the migratory cells are fixed, stained with GIEMSA, and counted. Data represent the average of 3 experiments (±s.d.). […] Data represent the average of 3 experiments (±s.d.). […] Data represent the average of 3 experiments (±s.d.). […] Data represent the average of 3 experiments (±s.d.).

HMECs = test: Growth of normal mammary epithelial cells; assay type: cell-based, human; conditions: 10 μM, 6 days

CN(C)c1ccc(C2Nc3ccc4ccccc4c3C3=C2C(=O)CC(C)(C)C3)cc1Br (centres unmarked) [Compound 968, 5-[3-bromo-4-(dimethylamino)phenyl]-2,2-dimethyl-2,3,5,6-tetrahydrobenzo[a]]
GA activity IPed from Dbl-transformed cells ([1]; 10 μM): inhibited | GAC activity after treatment of cells (FIG. 19) ([1]; cells treated 10 mM for 48 hours): effective inhibitors | colony formation in soft agar (MDA-MB231 cells): inhibits | growth to high density and in low serum (MDA-MB231 cells): inhibits | growth of HMECs (HMECs): little effect
